According to ChEMBL document CHEMBL4665696, “Highly Modified Lanostane Triterpenes from the Wood-Rot Basidiomycete Ganoderma colossus: Comparative Chemical Investigations of Natural and Artificially Cultivated Fruiting Bodies and Mycelial Cultures” (J Nat Prod, 2020):
Values after ≈ are worked out from the molar mass of the structure shown.

Tests used:
[1] = system: Plasmodium falciparum; assay: Antimalarial activity against Plasmodium falcipuram K1 by microculture radioistope technique; type: functional, organism-based
[2] = system: Mycobacterium tuberculosis; assay: Antitubercular activity against Mycobacterium tuberculosis H37Ra by green fluorescent protein microplate assay; type: functional
[3] = system: Vero; assay: Cytotoxicity against African green monkey Vero cells by green fluorescent protein-based assay; type: cell-based; details: Chlorocebus sabaeus

Compound	IC50 [1] [µg/mL]	MIC [2] [µg/mL]	IC50 [3] [µg/mL]
Cl.O[C@@H](c1cc(C(F)(F)F)nc2c(C(F)(F)F)cccc12)[C@H]1CCCCN1	> 10	–	–
CC(=O)OC[C@@]1(CCC(=O)O)C2=C(CC[C@H]1C(C)(C)O)[C@]1(C)CC[C@H]([C@H](C)[C@@H]3CC=C(C)C(=O)O3)[C@@]1(C)CC2	8.2 (≈ 15.1 µM)	25 (≈ 45.9 µM)	> 50
CC(=O)OC[C@]12CC[C@H](O)C(C)(C)[C@@H]1CCC1=C2CC[C@]2(C)[C@@H]([C@H](C)[C@H](C/C=C(/C)C(=O)O)OC(C)=O)CC[C@@]12C	> 10	> 50	> 50
CC(=O)OC[C@]12CCC(=O)OC(C)(C)[C@@H]1CC=C1C2=CC[C@]2(C)[C@@H]([C@H](C)[C@H](C/C=C(/C)C(=O)O)OC(C)=O)CC[C@@]12C	> 10	> 50	> 50
CC(=O)OC[C@@]1(CCC(=O)O)C2=C(CC[C@H]1C(C)(C)O)[C@]1(C)CC[C@H]([C@H](C)[C@H](C/C=C(/C)C(=O)O)OC(C)=O)[C@@]1(C)CC2	> 10	> 50	> 50
CC(=O)OC[C@]12CCC(=O)OC(C)(C)[C@@H]1CCC1=C2CC[C@]2(C)[C@@H]([C@H](C)[C@H](C/C=C(/C)C(=O)O)OC(C)=O)CC[C@@]12C	> 10	> 50	> 50
CC1=CC[C@@H]([C@@H](C)[C@H]2CC[C@@]3(C)C4=C(CC[C@]23C)[C@]23CC[C@H](OC2=O)C(C)(C)[C@@H]3CC4)OC1=O	> 10	> 50	> 50
CC1=CC[C@@H]([C@@H](C)[C@H]2CC[C@@]3(C)C4=C(CC[C@]23C)[C@@]2(C)CCC(=O)C(C)(C)[C@@H]2CC4)OC1=O	3.6 (≈ 7.95 µM)	> 50	> 50
CC(=O)OC[C@@]1(CCC(=O)O)C2=CC[C@]3(C)[C@@H]([C@H](C)[C@H](C/C=C(/C)C(=O)O)OC(C)=O)CC[C@@]3(C)C2=CC[C@H]1C(C)(C)O	1.4 (≈ 2.32 µM)	> 50	> 50
CC(=O)O[C@@H](C/C=C(/C)C(=O)O)[C@@H](C)[C@H]1CC[C@@]2(C)C3=C(C=C4C=CC(=O)OC(C)(C)[C@@H]4CC3)CC[C@]12C	0.03 (≈ 0.0572 µM)	> 50	49.2 (≈ 93.8 µM)
CC(=O)O[C@@H]1C[C@H]([C@H](C)[C@@H]2CC=C(C)C(=O)O2)[C@@]2(C)CCC3=C(CC[C@H]4C(C)(C)OC(=O)C=C[C@]45C[C@H]35)[C@]12C	0.001 (≈ 0.00186 µM)	25 (≈ 46.6 µM)	8.5 (≈ 15.8 µM)
CC(=O)O[C@@H](C/C=C(/C)C(=O)O)[C@@H](C)[C@H]1CC[C@@]2(C)C3=CC[C@@H](C(C)(C)OC(C)=O)[C@]4(CCC(=O)OC4)C3=CC[C@]12C	5.8 (≈ 9.92 µM)	> 50	> 50
CC(=O)OC[C@@]1(CCC(=O)O)C2=C(CC[C@H]1C(C)(C)O)[C@]1(C)CC[C@H]([C@H](C)[C@H]3OC(=O)C(C)=C[C@@H]3O)[C@@]1(C)CC2	5 (≈ 8.92 µM)	> 50	> 50
C[C@H]1[C@@H](O)O[C@@H]2O[C@@]3(C)CC[C@H]4[C@H](C)CC[C@@H]1[C@@]24OO3 [ARTENIMOL]	> 10	–	–
Cc1c2ccncc2c(C)c2c1[nH]c1ccccc12 [ELLIPTECINE]	–	–	0.87 (≈ 3.53 µM)
NNC(=O)c1ccncc1 [ISONIAZID]	–	0.047 (≈ 0.343 µM)	–
